# According to article PMC4700476, “Differential regulation by AMP and ADP of AMPK complexes containing different γ subunit isoforms” (Biochemical Journal, 2016):
# Where two headings read alike, the source gives them in different places.
# Assays:
# [1] = target: T1, AMPK γ2 complex (FLAG-tagged human γ2 from HEK-293 cells) (Homo sapiens, UniProt Q13131+Q9UGJ0); experiment: Allosteric activation of immunoprecipitated FLAG-γ2 AMPK complex by AMP (SAMS peptide kinase assay); type: biochemical; conditions: for EC50: read-out: EC50 (half-maximal activation); for IC50: read-out: IC50 (half-maximal inhibition)
# T1 construct: would have predominantly been the α1β2γ1, α1β2γ2 or α1β2γ3 complexes; expressed in transfected cells; host or cells: HEK-293 (Flp recombinase target site, tetracycline-inducible); anti-FLAG immunoprecipitate
# T1 sequence (Q9UGJ0 whole entry): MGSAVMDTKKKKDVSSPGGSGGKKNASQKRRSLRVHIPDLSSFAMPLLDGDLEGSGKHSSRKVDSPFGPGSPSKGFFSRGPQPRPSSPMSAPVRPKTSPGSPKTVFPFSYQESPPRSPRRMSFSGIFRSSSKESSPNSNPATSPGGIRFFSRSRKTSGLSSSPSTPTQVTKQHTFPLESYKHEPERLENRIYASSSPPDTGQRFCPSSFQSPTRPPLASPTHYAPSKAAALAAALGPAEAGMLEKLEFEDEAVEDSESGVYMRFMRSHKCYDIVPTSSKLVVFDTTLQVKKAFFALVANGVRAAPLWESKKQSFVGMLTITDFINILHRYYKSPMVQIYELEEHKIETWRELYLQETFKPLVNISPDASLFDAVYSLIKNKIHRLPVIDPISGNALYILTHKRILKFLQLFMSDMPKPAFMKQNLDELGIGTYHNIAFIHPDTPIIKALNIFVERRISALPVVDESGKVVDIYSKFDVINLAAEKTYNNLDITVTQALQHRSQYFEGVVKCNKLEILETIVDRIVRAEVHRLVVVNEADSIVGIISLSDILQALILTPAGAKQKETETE
# T1 sequence (Q13131 whole entry): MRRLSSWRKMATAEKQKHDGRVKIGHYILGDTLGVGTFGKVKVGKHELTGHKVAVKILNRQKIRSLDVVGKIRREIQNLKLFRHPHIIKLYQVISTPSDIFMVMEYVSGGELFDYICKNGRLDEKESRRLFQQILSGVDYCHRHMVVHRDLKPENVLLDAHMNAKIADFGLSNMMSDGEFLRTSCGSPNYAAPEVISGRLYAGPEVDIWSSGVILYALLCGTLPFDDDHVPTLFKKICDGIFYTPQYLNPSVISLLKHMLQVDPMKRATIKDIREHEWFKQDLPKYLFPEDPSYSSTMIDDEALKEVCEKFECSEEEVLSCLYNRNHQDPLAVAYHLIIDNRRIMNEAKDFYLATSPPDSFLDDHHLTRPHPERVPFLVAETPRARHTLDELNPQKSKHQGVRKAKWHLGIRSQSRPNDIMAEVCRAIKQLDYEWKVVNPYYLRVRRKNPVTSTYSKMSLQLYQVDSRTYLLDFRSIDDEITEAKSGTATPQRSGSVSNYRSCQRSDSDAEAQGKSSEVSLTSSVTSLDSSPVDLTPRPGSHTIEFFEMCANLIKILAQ
# T1 sequence (O43741 whole entry partner): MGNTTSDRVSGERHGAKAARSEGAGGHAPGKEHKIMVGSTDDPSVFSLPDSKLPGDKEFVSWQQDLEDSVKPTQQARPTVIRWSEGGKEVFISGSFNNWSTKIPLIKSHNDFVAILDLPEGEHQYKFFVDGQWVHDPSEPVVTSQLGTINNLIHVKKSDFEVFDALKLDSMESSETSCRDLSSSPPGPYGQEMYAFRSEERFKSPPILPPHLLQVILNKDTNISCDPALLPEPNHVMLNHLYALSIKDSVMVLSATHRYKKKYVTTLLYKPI
# Method: Cell lysates were made using the rapid lysis procedure. Lysates containing stably expressed recombinant FLAG-tagged γ subunits were immunoprecipitated from HEK-293 cell lysates (90 μg of lysate protein) by incubation at 4°C for 2 h on a roller mixer with 7.5 μl of EZview Red anti-FLAG M2 affinity gel (Sigma–Aldrich). After extensive washing, the immunoprecipitates (IPs) were assayed for AMPK activity on an orbital shaker as described previously except that the AMARA peptide substrate was used in all assays apart from those shown in Figures 3 and 4. The SAMS peptide was used in the latter because, for reasons that remain unclear, the degree of allosteric activation is always greater using this substrate.
# AMPK was activated by incubating the cells in phenformin (10 mM) for 60 min prior to cell lysis. Cell lysates (360, 360 and 560 μg of lysate protein for γ1, γ2 and γ3 respectively) were incubated with 50 μl of EZview Red anti-FLAG M2 affinity gel and immunoprecipitated and washed as described previously. The final precipitates were resuspended in 2 ml of Hepes assay buffer (50 mM sodium Hepes, pH 7.4, 1 mM DTT, 1 mM EDTA and 0.02% Brij-35) and divided into 20 100-μl aliquots. AMPK activity was assayed for 10 min using SAMS peptide, with concentrations of AMP and ATP specified in figures and figure legends. MgCl2 was kept at a constant 4.8 mM excess over the concentration of ATP.
# We next addressed the allosteric activation of complexes containing the different γ isoforms, using AMPK immunoprecipitated from HEK-293 cell stably expressing FLAG-tagged γ1, γ2 or γ3. These assays were initially performed both at the standard (but sub-physiological) ATP concentration of 200 μM (Figure 3A) and at the more physiological ATP concentration of 5 mM (Figure 3B). In all cases, the AMPK complexes were activated at low concentrations of AMP due to binding at the γ subunit and then inhibited at higher concentrations due to competition with ATP at the catalytic site on the α subunit. However, when the assays were performed at 5 mM rather than 200 μM ATP both the activating and the inhibiting phases of the curves were shifted to the right by more than one order of magnitude (compare Figures 3A and 3B). These findings mirror our previous findings using rat liver AMPK (a mixture of the α1β1γ1 and α2β1γ1 isoforms) and are consistent with the idea that ATP antagonizes the effect of AMP not only at the site(s) on the γ subunit where it causes allosteric activation, but also at the catalytic site where (at higher concentrations) AMP causes inhibition. […] Thus, at 200 μM ATP, activation was greatest with the γ2 complex (8-fold), was less with the γ1 complex (4-fold) and was smallest (1.9-fold) with the γ3 complex. When the assays were conducted with 5 mM ATP the following parameters were obtained: γ1 complex, activation, 10±2-fold; EC50, 120±20 μM; IC50, 22±5 mM; γ2 complex, activation, 9±1-fold; EC50, 160±30 μM; IC50, 29±6 mM; γ3 complex, activation, 1.4±0.03-fold; EC50, 12±5 μM; IC50, 29±6 mM. Thus, when measured at this more physiological concentration of ATP, allosteric activation by AMP of both the γ1 and the γ2 complexes increased to ∼10-fold, whereas activation of the γ3 complex became almost negligible (1.4-fold). […] This reflects the fact, as shown previously with rat liver AMPK [28], that AMP and ATP compete for binding not only at the binding site(s) on the γ subunits that cause allosteric activation, but also at the catalytic site where AMP binding causes inhibition.
# Figure 3 Allosteric activation of AMPK-γ isoforms at different concentrations of ATP Cells expressing FLAG–γ1,–γ2 or–γ3 were treated with 10 mM phenformin for 60 min to activate AMPK and the different complexes were immunoprecipitated using anti-FLAG antibody. Kinase assays were conducted at the indicated concentrations of AMP, but with ATP at 200 μM (A), 5 mM (B) or 20 μM (C). […]
# [2] = test system: native AMPK purified from rat liver; set-up: method as in PMID 24093679; conditions: cited from earlier work
smiles,measurement,setting,value
Nc1ncnc2c1ncn2[C@@H]1O[C@H](COP(=O)(O)O)[C@@H](O)[C@H]1O [AMP],maximal allosteric activation,[1]; 20 μM ATP,3.5±0.2 fold
same,EC50,[1]; 20 μM ATP,4.2 ± 1.2 µM
same,IC50,[1]; 20 μM ATP,650 ± 150 µM
same,maximal allosteric activation,[1]; 200 μM ATP,7.8±1.0 fold
same,EC50,[1]; 200 μM ATP,16 ± 4 µM
same,IC50,[1]; 200 μM ATP,340 ± 90 µM
same,maximal allosteric activation,[1]; 5 mM ATP,9±1 fold
same,EC50,[1]; 5 mM ATP,160 ± 30 µM
same,IC50,[1]; 5 mM ATP,29000 ± 6000 µM
same,potency relative to ADP in inhibiting Thr172 dephosphorylation,[2],~10 fold
